Patent US20100115635A1, “Methods for Assessing the Delivery of Exogenous Agents” (Abbott Laboratories, priority 2007, published 2010)

System: MDA-tetR-ODC/Luc liver tumors
Test: bioluminescence imaging of MDA-tetR-ODC/Luc liver tumors
Assay type: in vivo, mice
Settings: 4 days after doxycycline treatment
Source text: A MDA-tetR-ODC/Luc cell line was created from MDA-MB435-SLM-derived cell line with a stably integrated tetR-ODC expression cassette and a tet-responsive firefly luciferase reporter. FIG. 6A). The MDA-tetR-ODC/Luc cells were inoculated into skid mice to establish liver tumors. The mice were imaged before doxycycline treatment (top panel of FIG. 6A) or 4 days after doxycycline treatment (bottom panel of FIG. 6A). […] FIG. 6B) Monitoring target knockdown in the MDA-tetR-ODC/Luc cell-derived liver tumors using imaging. The MDA-tetR-ODC/Luc cells were inoculated into skid mice to establish liver tumors. […] Mice were imaged before dosing and 2 days after the last dose. […] The mice were imaged before doxycycline treatment (top panel of FIG. 6B) or 4 days after doxycycline treatment (bottom panel of FIG. 6B).

C[C@H]1c2cccc(O)c2C(=O)C2=C(O)[C@]3(O)C(=O)C(C(N)=O)=C(O)[C@@H](N(C)C)[C@@H]3[C@@H](O)[C@@H]21 [doxycycline] was tested, and the “increase of luminescent signal compared to untreated mice” value was “more than 100 fold”.
